Measured values reported in article PMC2797576 (Biochemistry, 2009).
Marks after values point to notes of the source that are not given here.

Experiments:
[1] = target: E. coli PGDH (native, free of bound NADH) (Escherichia coli, UniProt P0A9T0); assay: Pre-steady-state stopped-flow analysis of NADH binding; conditions: saturating L-serine versus serine absent
W139F-E360W PGDH [2] = target: T1, W139F-E360W PGDH (Escherichia coli, UniProt P0A9T0, E360W/W139F); assay: Steady-state inhibition of enzymatic activity of W139F-E360W PGDH by L-serine; type: biochemical, E. coli; conditions: W139F-E360W mutant
[3] = target: E. coli D-3-phosphoglycerate dehydrogenase (PGDH), native enzyme (Escherichia coli, UniProt P0A9T0); assay: Steady-state inhibition of enzymatic activity of native PGDH by L-serine; type: biochemical
W139F-E360W PGDH [4] = target: T1, W139F-E360W PGDH; assay: Steady-state serine binding by tryptophan fluorescence quenching titration; design: species or system E. coli; conditions: 2.5 μM enzyme subunits, fit to Hill equation (eq 11)
W139F-E360W PGDH [5] = target: T1, W139F-E360W PGDH; assay: Stopped-flow transient kinetics of L-serine binding; design: species or system E. coli; conditions: for k3: estimated from Figure 9; for k2: forward rate constant of conformational change after binding; for k−3: reverse rate constant of conformational change before binding

## N[C@@H](CO)C(=O)O [L-serine]
[1]
  Increase in the Kd for NADH binding caused by serine, first set of sites: 15 fold
  Increase in the Kd for NADH binding caused by serine, other set of sites: 5 fold
W139F-E360W PGDH [2]
  Hill coefficient for inhibition of enzymatic activity: 2.2 ± 0.1
[3]
  Hill coefficient for inhibition of enzymatic activity: 1.9 ± 0.1
W139F-E360W PGDH [4]
  K0.5 for fluorescence quenching: 13.6 ± 0.5
W139F-E360W PGDH [5]; kobs1, printed >0–20
  k3: (>0–20 s^−1) ^b
W139F-E360W PGDH [5]; kobs1
  k2: 61 ± 4 s⁻¹
  k−3: 88 ± 7 s⁻¹
W139F-E360W PGDH [5]; kobs2, printed >0–2
  k3: (>0–2 s^−1) ^b
W139F-E360W PGDH [5]; kobs2
  k2: 161 ± 18 s⁻¹
  k−3: 166 ± 22 s⁻¹
